Measured values: publication PMC12362587, “Untargeted Diversity-Oriented Synthesis for the Discovery of New Antitumor Agents: An Integrated Approach of Inverse Virtual Screening, Bioinformatics, and Omics for Target Deconvolution” (Journal of Medicinal Chemistry, 2025)

Key:
[1] = molecular target: T1, G-protein coupled receptor 55 (Homo sapiens, UniProt Q9Y2T6); assay: Cell Based Antagonist Arrestin LeadHunter Assay; conditions: Eurofins, read-out: EC50 or IC50, G-protein coupled receptor 55, antagonist mode
T1 construct: Eurofins (contract assay)
T1 sequence (Q9Y2T6 whole entry): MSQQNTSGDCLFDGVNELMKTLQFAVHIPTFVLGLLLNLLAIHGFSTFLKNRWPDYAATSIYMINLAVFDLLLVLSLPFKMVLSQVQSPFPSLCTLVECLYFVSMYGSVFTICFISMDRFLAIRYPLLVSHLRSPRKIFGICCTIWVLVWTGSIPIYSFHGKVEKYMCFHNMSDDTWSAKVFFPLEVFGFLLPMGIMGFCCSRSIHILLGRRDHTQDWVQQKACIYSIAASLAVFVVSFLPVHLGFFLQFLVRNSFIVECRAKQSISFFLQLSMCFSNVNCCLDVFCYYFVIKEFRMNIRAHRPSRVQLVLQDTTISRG
Excerpt: For displacement assays on G-protein coupled receptor 55 (GPR55), Vasopressin V2 receptor (V2R), Adenosine A1 receptor (A1AR), Fibroblast growth factor receptor 1 (FGFR1), Vascular endothelial growth factor receptor 2 (VEGFR2), Platelet-derived growth factor receptor beta (PDGFRB), Vascular endothelial growth factor receptor 1 (VEGFR1), Thromboxane Synthase (TXS) and Phosphodiesterase 10A (PDE10A), we commissioned the Eurofins company which employed its specific experimental methods, accessible at the link: https://www.eurofins.com/.

[2] = system: A375 cells; assay: Annexin V-FITC staining (apoptosis, flow cytometry); format: cell-based, human; conditions: 72 h
Experimental: Given the cytotoxic role of the compounds, an annexin V-FITC staining was performed to evaluate their effects on cell apoptosis.
Apoptosis of the cells was assessed using the Annexin V-FITC/PI reagents. A375 cells (3 × 10^4 cells/well) were seeded into 24-well plates and incubated for 72 h with compounds (5, 2.5, and 1.25 μM). After treatment, the collected cells were resuspended in a 100 μL assay buffer, then 5 μL Annexin V-FITC and 1 μL PI reagents were added following an incubation for 20 min at room temperature according to the manufacturer’s protocol (Dead Cell Apoptosis Kits with Annexin V for Flow Cytometry, Thermo Fisher Scientific). Cells were analyzed with a Becton Dickinson FACScan flow cytometer using the Cell Quest software, version 4 (Franklin Lakes, NJ, USA).

[3] = molecular target: human CB2R (Homo sapiens, UniProt P34972); assay: cAMP Hunter assay, functional activity at CB2R; format: cell-based; parameters: host or cells: CHO-K1; conditions: CHO cells expressing human CB2R, alone and with JWH133
human CB2R, sequence (P34972 whole entry): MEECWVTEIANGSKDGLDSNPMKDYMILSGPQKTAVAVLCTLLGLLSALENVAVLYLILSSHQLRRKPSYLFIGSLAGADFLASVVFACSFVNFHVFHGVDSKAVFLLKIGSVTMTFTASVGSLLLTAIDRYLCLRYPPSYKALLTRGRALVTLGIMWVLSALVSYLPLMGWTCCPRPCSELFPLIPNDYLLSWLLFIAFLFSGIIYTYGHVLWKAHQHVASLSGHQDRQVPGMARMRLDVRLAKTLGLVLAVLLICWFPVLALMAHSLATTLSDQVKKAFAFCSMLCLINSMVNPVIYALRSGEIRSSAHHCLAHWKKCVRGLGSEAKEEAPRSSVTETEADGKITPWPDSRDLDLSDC
Experimental: The curves show the effect of increasing concentrations of the compound on NKH-477-induced cAMP levels in stable CHO cells expressing the human CB2R. The effect of JWH-133 is reported as a reference compound. Data are reported as means ± standard error of three independent experiments conducted in triplicate and normalized considering the NKH-477 stimulus alone as 100% of the response as indicated in the experimental session. EC50 was determined by GraphPad Prism 9 as the concentration that provokes the response halfway between the baseline (bottom) and maximum response (top) of the fitted dose–response.
The functional activity at CB2Rs was evaluated using the cAMP Hunter assay with an enzyme fragment complementation chemiluminescent detection kit, as previously reported. Following the manufacturer’s instructions, this assay measured Gi-coupled cAMP modulation in CB2R-expressing cell lines (DiscoveRx, Fremont, CA). Briefly, CHO-K1 cells overexpressing the human CB2Rs were plated in a 96-well plate at a density of 10,000 cells per well and incubated overnight at 37 °C in 5% CO2. […] Following stimulation, the cells were lysed, and cAMP levels were detected according to the manufacturer’s protocol. Luminescence was measured using the GloMax Multi-Detection System (Promega, Italy). Results were expressed as mean ± SEM and derived from three independent experiments conducted in triplicate. […]

IC50 [1]	functional activity at CB2R (NKH-477-induced cAMP levels) [3]	Structure (SMILES)	percentage of apoptotic cells ([2]; 1.25 μM)	percentage of apoptotic cells ([2]; 2.5 μM)	percentage of apoptotic cells ([2]; 5 μM)
≥ 30 µM		CC(C)C[C@H]1C(=O)N(Cc2ccc(C(F)(F)F)cc2)c2ccccc2C(=O)N1Cc1ccc(C(F)(F)F)cc1 [Compound 31, (S)-3-Isobutyl-1,4-bis(4-(trifluoromethyl)benzyl)-3,4-dihydro-1H-benzo[e][1,4]diazepine-2,5-dione]	20.40 ± 4.56%	81.10 ± 3.89%	88.68 ± 2.10%
≥ 30 µM	functional inverse agonist activity	CC(C)C[C@@H](C(=O)OCc1ccccc1)N1Cc2ccccc2NC1=O [Compound 63, Benzyl (S)-4-Methyl-2-(2-oxo-1,4-dihydroquinazolin-3(2H)-yl)pentanoate]	16.52 ± 3.24%	58.90 ± 1.89%	71.25 ± 0.11%
